Assay results from publication PMC6502838, “Low potential enzymatic hydride transfer via highly cooperative and inversely functionalized flavin cofactors” (Nature Communications, 2019).

Target: T1, 2-Naphthoyl-CoA reductase (NCR) (uncultured Desulfobacterium sp., UniProt E1YD54)
T1 construct: gene N47_G38220; Strep-tag fusion, E. coli host, monomer; TIM barrel 19-359, linker 360-400 with [4Fe-4S], FAD domain 401-503 + 626-674, alpha/beta domain 504-625
T1 sequence (E1YD54 1-670): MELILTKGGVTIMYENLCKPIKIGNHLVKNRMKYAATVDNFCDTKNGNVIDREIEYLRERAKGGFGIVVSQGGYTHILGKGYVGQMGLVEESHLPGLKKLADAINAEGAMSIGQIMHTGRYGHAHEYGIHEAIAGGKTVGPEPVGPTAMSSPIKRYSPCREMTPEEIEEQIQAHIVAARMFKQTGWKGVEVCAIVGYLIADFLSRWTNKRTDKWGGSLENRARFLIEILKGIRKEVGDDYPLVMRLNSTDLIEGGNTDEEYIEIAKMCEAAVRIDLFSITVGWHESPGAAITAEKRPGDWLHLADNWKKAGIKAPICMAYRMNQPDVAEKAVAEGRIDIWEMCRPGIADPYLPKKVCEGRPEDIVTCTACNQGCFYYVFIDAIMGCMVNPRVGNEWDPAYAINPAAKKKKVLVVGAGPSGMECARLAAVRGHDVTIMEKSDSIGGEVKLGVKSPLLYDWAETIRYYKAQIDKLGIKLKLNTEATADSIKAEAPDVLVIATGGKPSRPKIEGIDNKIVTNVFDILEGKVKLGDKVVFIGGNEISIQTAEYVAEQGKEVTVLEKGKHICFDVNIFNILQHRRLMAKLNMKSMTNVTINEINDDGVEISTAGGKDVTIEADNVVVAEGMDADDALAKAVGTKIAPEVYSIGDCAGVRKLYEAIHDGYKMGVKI
Test: X-ray crystal structure, soaked, […] A
Type: binding
Settings: crystals soaked with 0.5 mM NCoA, pH 6.5-7.0, 2 h, 4 C; active site, stacked on FMN; incompletely occupied

In the case of `CC(C)(COP(=O)(O)OP(=O)(O)OC[C@H]1O[C@@H](n2cnc3c(N)ncnc32)[C@H](O)[C@@H]1OP(=O)(O)O)[C@@H](O)C(=O)NCCC(=O)NCCSC(=O)c1ccc2ccccc2c1` [NCoA], the “X-ray crystal structure, soaked, 2.2 A” value is reported as “structure in complex with the substrate NCoA and the product DHNCoA were determined”.
